The results in this text go back to patent US5629332A, “Triazole compound and use thereof” (Nihon Nohyaku Co., Ltd., priority 1994, dated 1997).

For assay [1], the system named is C. albicans IFO 1270. The assay is described as follows: survival of mice after intravenous inoculation with C. albicans, oral treatment (Test Example 2, Table 3). To be noted: 10 mg/kg orally once a day for 3 consecutive days, 10 days after inoculation, male ddy mice; for responders at 10 mg/kg: Candida albicans, IFO1270, po, 240 h, read-out: Survival ratio (%). The format is in vivo. The method, then: Male ddy mice at six weeks of age were divided into a control group of 10 animals and drug administration groups of 5 animals each.
Subculture was carried out at 37° C. for 24 hrs Sabouraudp's glucose agar (manufactured by Difco laboratory).
A cell suspension of C. albicans IFO 1270 (2.5×10^7 cells/ml) was intravenously inoculated in an amount of 4 ml/kg, and each test compound was orally administered in a dose of 10 mg/kg once a day for 3 consecutive days. Examination of survival ratio was carried out 10 days after the inoculation of fungi.

Assay [2] deals with Candida albicans IFO 1270. Description: growth inhibition of Candida albicans IFO 1270 in culture (Test Example 1, Table 2). To be noted: 37° C., Sabouraud's glucose broth; for Growth inhibition ratio (%) 0.1 μg/ml / inhibition of growth at 0.1 µg/mL: final compound concentration 0.1 μg/ml; for Growth inhibition ratio (%) 0.1 μg/ml / Growth inhibition ratio (%) 10 μg/ml: 48 hrs; for Growth inhibition ratio (%) 10 μg/ml / inhibition of growth at 10 µg/mL: final compound concentration 10 μg/ml; for inhibition of growth at 0.1 µg/mL / inhibition of growth at 10 µg/mL: Candida albicans, IFO1270, 48 h; for inhibition of growth at 0.1 µg/mL: read-out: Growth inhibition ratio (%) 0.1 μg/ml; for inhibition of growth at 10 µg/mL: read-out: Growth inhibition ratio (%) 10 μg/ml. The assay is classed as cell-based. The method, then: A 0.1 ml portion of a cell suspension of Candida albicans IFO 1270 (1.0×10^7 cells/ml) and a 0.1 ml portion of each test compound dissolved in dimethylsulfoxide were added to 9.8 ml of Sabouraudp's glucose broth.
Final compound concentrations in the culture were 10 μg/ml or 0.1 μg/ml. After incubation On a reciprocal shaker at 37° C. for 48 hrs, growth inhibition ratio of each test compound was measured.

As for `CC(Cc1ccc(-n2cncn2)cc1)C(O)(Cn1cncn1)c1ccc(F)cc1F` (centres unmarked) [compound 16], in assay [1], the “Survival ratio (%)” value is 100%.

As to `CC(CCCc1ccc(Cl)cc1)C(O)(Cn1cncn1)c1ccc(F)cc1F` (centres unmarked) [compound 3], in assay [2], the “Growth inhibition ratio (%) 0.1 μg/ml” value was determined as 58% and the “Growth inhibition ratio (%) 10 μg/ml” value is 74%. Moreover, the “Survival ratio (%)” value in assay [1] is given as 60%.

For `CC(CCc1ccc(F)cc1)C(O)(Cn1cncn1)c1ccc(F)cc1F` (centres unmarked) [compound 25], in assay [2], the inhibition of growth at 0.1 µg/mL is 60% and the inhibition of growth at 10 µg/mL was 70%.

As to `CC(CCc1ccc(-n2cncn2)cc1)C(O)(Cn1cncn1)c1ccc(F)cc1F` (centres unmarked) [compound 37, 2-(2,4-difluorophenyl)-3-methyl-5-(4-triazolphenyl)-1-triazolyl-pentan-2-ol], the responders at 10 mg/kg in assay [1] was 80%.

With `CC(Cc1ccc(-n2cncn2)cc1)C(O)(Cn1cncn1)c1ccc(F)cc1F` (centres unmarked) [compound 17], the “Survival ratio (%)” value in assay [1] worked out at 60%.

For `CC(=O)N1CCN(c2ccc(OC[C@H]3CO[C@](Cn4ccnc4)(c4ccc(Cl)cc4Cl)O3)cc2)CC1` (relative stereo) [Control drug A, cis1-acetyl-4-[4-[[2-(2,4-dichlorophenyl)-2-(imidazol-1-ylmethyl)-1,3-dioolan-4-yl]methoxy]phenyl]piperazine, reference compound], in assay [2], the inhibition of growth at 0.1 µg/mL worked out at 59% and the inhibition of growth at 10 µg/mL is 77%. Further, the responders at 10 mg/kg in assay [1] was determined as 20%.

`CC(Cc1ccc(F)cc1F)C(O)(Cn1cncn1)c1ccc(F)cc1F` (centres unmarked) [compound 32]: the responders at 10 mg/kg in assay [1] came to 80%.

As for `CC(Cc1ccc(-n2cncn2)cc1)C(O)(Cn1cncn1)c1ccc(F)cc1F` (centres unmarked) [compound 15], in assay [2], the inhibition of growth at 0.1 µg/mL is 53% and the inhibition of growth at 10 µg/mL is 66%. The “Survival ratio (%)” value in assay [1] worked out at 100%.

For the compound `CC(Cc1ccc(C=NNC=O)cc1)C(O)(Cn1cncn1)c1ccc(F)cc1F` (centres unmarked) [compound 27], in assay [1], the responders at 10 mg/kg turned out to be 40%.

In the case of “2-(2,4-difluorophenyl)-2-[1-methyl-2-(4-fluorophenyl)-ethyl]-1-triazolyl-2-ethanol [compound 11]”, in assay [2], the “Growth inhibition ratio (%) 0.1 μg/ml” value stood at 45% and the “Growth inhibition ratio (%) 10 μg/ml” value is 74%. Further, in assay [1], the “Survival ratio (%)” value is reported as 60%.

Turning to `CC(Cc1ccc(C(F)(F)F)cc1)C(O)(Cn1cncn1)c1ccc(F)cc1F` (centres unmarked) [compound 43], the responders at 10 mg/kg in assay [1] is 100%.

As for `CC(Cc1ccc(OC(F)(F)F)cc1)C(O)(Cn1cncn1)c1ccc(F)cc1F` (centres unmarked) [Compound No. 10], the responders at 10 mg/kg in assay [1] was 100%.

With `CC(Cc1ccc(S(C)(=O)=O)cc1)C(O)(Cn1cncn1)c1ccc(F)cc1F` (centres unmarked) [compound 30], in assay [2], the inhibition of growth at 0.1 µg/mL turned out to be 6% and the inhibition of growth at 10 µg/mL is 63%. In assay [1], the responders at 10 mg/kg came out at 100%.

Consider `CC(CSc1nccn1C)C(O)(Cn1cncn1)c1ccc(F)cc1` (centres unmarked) [compound 5], for which, in assay [2], the inhibition of growth at 0.1 µg/mL turned out to be 5% and the inhibition of growth at 10 µg/mL turned out to be 10%. Also, the responders at 10 mg/kg in assay [1] stood at 0%.

`CC(Cc1ccc(C#N)cc1)C(O)(Cn1cncn1)c1ccc(F)cc1F` (centres unmarked) [compound 7, 1-triazolyl-2-(2,4-difluorophenyl)-3-methyl-4-(4-cyanophenyl)-2-butanol]: in assay [2], the inhibition of growth at 0.1 µg/mL was determined as 53% and the inhibition of growth at 10 µg/mL came out at 74%. Further, the responders at 10 mg/kg in assay [1] was determined as 100%.

Regarding `CC(CCCc1ccc(Cl)cc1)C(O)(Cn1cncn1)c1ccc(F)cc1F` (centres unmarked) [compound 2], in assay [2], the inhibition of growth at 0.1 µg/mL came out at 60% and the inhibition of growth at 10 µg/mL worked out at 76%. For the same compound, in assay [1], the responders at 10 mg/kg was determined as 80%.

As to `CC(Cc1ccc(C#N)cc1)C(O)(Cn1cncn1)c1ccc(F)cc1F` (single isomer, unassigned) [compound 8, 1-triazolyl-2-(2,4-difluorophenyl)-3-methyl-4-(4-cyanophenyl)-2-butanol], in assay [2], the inhibition of growth at 0.1 µg/mL came out at 59% and the inhibition of growth at 10 µg/mL came out at 78%. For the same compound, the responders at 10 mg/kg in assay [1] stood at 100%.

Take `CC(Cc1ccc([N+](=O)[O-])cc1)C(O)(Cn1cncn1)c1ccc(F)cc1F` (centres unmarked) [compound 22]: in assay [2], the inhibition of growth at 0.1 µg/mL was 58% and the inhibition of growth at 10 µg/mL was 70%. In assay [1], the responders at 10 mg/kg was determined as 100%.

As for `CC(Cc1ccc(-n2cnn(C)c2=O)cc1)C(O)(Cn1cncn1)c1ccc(F)cc1F` (centres unmarked) [compound 31], in assay [1], the responders at 10 mg/kg was determined as 80%.

With `CC(Cc1ccc(Cl)cc1Cl)C(O)(Cn1cncn1)c1ccc(F)cc1F` (centres unmarked) [compound 28], in assay [1], the responders at 10 mg/kg stood at 100%.

In the case of `CC(Cn1cncn1)C(O)(Cn1cncn1)c1ccc(F)cc1` (centres unmarked) [compound 14], in assay [2], the inhibition of growth at 0.1 µg/mL stood at 2% and the inhibition of growth at 10 µg/mL is 20%. Further, in assay [1], the responders at 10 mg/kg was determined as 20%.

`CC(Cc1cccnc1)C(O)(Cn1cncn1)c1ccc(F)cc1F` (centres unmarked) [compound 18]: the responders at 10 mg/kg in assay [1] stood at 40%.

Regarding `CC(Cc1ccc(F)cc1)C(O)(Cn1cncn1)c1ccc(F)cc1F` (centres unmarked) [Compound No. 1], in assay [2], the inhibition of growth at 0.1 µg/mL is 71% and the inhibition of growth at 10 µg/mL was determined as 85%. Also, the responders at 10 mg/kg in assay [1] was found to be 80%.

On to `CC(CCc1ccc(C#N)cc1)C(O)(Cn1cncn1)c1ccc(F)cc1F` (centres unmarked) [compound 35], for which, in assay [2], the inhibition of growth at 0.1 µg/mL came out at 60% and the inhibition of growth at 10 µg/mL was 74%.

Turning to `CC(Cc1ccc(Cl)cc1SC(F)F)C(O)(Cn1cncn1)c1ccc(F)cc1F` (centres unmarked) [compound 20], in assay [2], the inhibition of growth at 0.1 µg/mL worked out at 53% and the inhibition of growth at 10 µg/mL came out at 68%. Besides, the responders at 10 mg/kg in assay [1] came out at 100%.

For `CC(CSc1ccc(F)cc1)C(O)(Cn1cncn1)c1ccc(F)cc1` (centres unmarked) [compound 4, 1-triazolyl-2-(4-fluorophenyl)-3-methyl-4-(4-fluorophenyl)-mercapto-2-butanol], in assay [2], the inhibition of growth at 0.1 µg/mL is 6% and the inhibition of growth at 10 µg/mL was determined as 72%. Besides, in assay [1], the responders at 10 mg/kg worked out at 0%.

On to `CSc1cc(Cl)ccc1CC(C)C(O)(Cn1cncn1)c1ccc(F)cc1F` (centres unmarked) [compound 39], for which, in assay [2], the inhibition of growth at 0.1 µg/mL turned out to be 53% and the inhibition of growth at 10 µg/mL was found to be 68%. For the same compound, the responders at 10 mg/kg in assay [1] is 100%.
